Literature values as cited in patent publication US20140171495A1, “STABLE PHARMACEUTICAL FORMULATION OF CABAZITAXEL” (Yung Shin Pharm.Ind. Co., Ltd., priority 2012, published 2014).

Which solubility in alcohol (alcohol) does the source give for `CO[C@H]1C(=O)[C@]2(C)[C@@H](OC)C[C@H]3OC[C@@]3(OC(C)=O)[C@H]2[C@H](OC(=O)c2ccccc2)[C@]2(O)C[C@H](OC(=O)[C@H](O)[C@@H](NC(=O)OC(C)(C)C)c3ccccc3)C(C)=C1C2(C)C` [Cabazitaxel, (2α,5β,7β,10β,13α)-4-acetoxy-13-({(2R,3S)-3[(tertbutoxycarbonyl)amino]-2-hydroxy-3-phenylpropanoyl}oxy)-1-hydroxy-7,10-dimethoxy-9-oxo-5,20-epoxytax-11-en-2-yl benzoate-propan-2-one(1:1)] here?
The solubility in alcohol was “soluble”.

What about the solubility in water (water) of the same compound?
Its solubility in water is “practically insoluble”.
